Experimental data taken from patent US20230303483A1, “USE OF STROBILURIN TYPE COMPOUNDS FOR COMBATING PHYTOPATHOGENIC FUNGI CONTAINING AN AMINO ACID SUBSTITUTION F129L IN THE MITOCHONDRIAL CYTOCHROME B PROTEIN CONFERRING RESISTANCE TO QO […]” (BASF SE, priority 2020, published 2023).

Key:
[1] = system: Phakopsora pachyrhizi (strain containing the amino acid substitution F129L in the mitochondrial cytochrome b protein); assay: Use example 1: protective control of soybean rust on soybeans (PHAKPA P2), inoculation 2 days after spraying; type: in vivo; conditions: % diseased leaf area on soybean, 16 ppm spray, inoculation 2 days after treatment, untreated controls usually >85 %
Method: (§1) The compound was dissolved in a mixture of acetone and/or dimethylsulfoxide and the wetting agent/emulsifier Wettol, which is based on ethoxylated alkylphenoles, in a ratio (volume) solvent-emulsifier of 99 to 1 to give a total volume of 5 ml. Subsequently, water was added to total volume of 100 ml. This stock solution was then diluted with the described solvent-emulsifier-water mixture to the final concentration given in the table below.
Use example 1. Protective control of soybean rust on soybeans caused by Phakopsora pachyrhizi (PHAKPA P2)
(§2) Leaves of potted soybean seedlings were sprayed to run-off with the previously described spray solution, containing the concentration of active ingredient or their mixture as described below. The plants were allowed to air-dry. The trial plants were cultivated for 2 days in a greenhouse chamber at 23-27° C. and a relative humidity between 60 and 80 %. Then the plants were inoculated with spores of Phakopsora pachyrhizi. The strain used contains the amino acid substitution F129L in the mitochondrial cytochrome b protein conferring resistance to Qo inhibitors. To ensure the success the artificial inoculation, the plants were transferred to a humid chamber with a relative humidity of about 95 % and 20 to 24° C. for 24 hr. The trial plants were cultivated for up to 14 days in a greenhouse chamber at 23 to 27° C. and a relative humidity between 60 and 80 %. The extent of fungal attack on the leaves was visually assessed as % diseased leaf area, the disease level of untreated controls was usually higher than 85 %.
(§3) All test results below are given for the control of phytopathogenic fungi containing the amino acid substitution F129L in the mitochondrial cytochrome b protein conferring resistance to Qo inhibitors.

[2] = system: Phakopsora pachyrhizi (strain containing the amino acid substitution F129L in the mitochondrial cytochrome b protein); assay: Use example 2: protective control of soybean rust on soybeans (PHAKPA P6), inoculation six days after spraying; type: in vivo; conditions: % diseased leaf area on soybean, 16 ppm spray, inoculation six days after treatment, untreated controls usually >85 %
Method: as §1
Use example 2. Protective control of soybean rust on soybeans caused by Phakopsora pachyrhizi (PHAKPA P6)
as §2, with “active ingredient as described” for “active ingredient or their mixture as described”, “cultivated for six days in” for “cultivated for 2 days in”, “% and 23 to 27°” for “% and 20 to 24°”, “23 to 27° C. for” for “20 to 24° C. for”
as §3

Compound	PHAKPA Disease level (%) P2 at 16 ppm [1] [%]	PHAKPA Disease level (%) P6 at 16 ppm [2] [%]
CO/N=C(/C(=O)OC)c1cccc(C)c1CO/N=C(\C)C#Cc1ccc(F)c(C(=O)OC)c1 [Example 123]	43	37
CNC(=O)/C(=N/OC)c1ccccc1CO/N=C(\C)C#Cc1ccc(Br)cc1 [Example 55]	23	40
COC/C(C#Cc1ccc(Cl)cc1)=N\OCc1ccccc1/C(=N\OC)C(=O)OC [Example 113]	87	77
CNC(=O)/C(=N/OC)c1ccccc1CO/N=C(\C)C#Cc1cccc(Br)c1 [Example 5]	1	7
CO/N=C(/C(=O)OC)c1ccccc1CO/N=C(\C)C#Cc1cccc(C(F)(F)F)c1 [Example 41]	50	67
CO/N=C(/C(=O)OC)c1cccc(C)c1CO/N=C(\C)C#Cc1ccc(F)cc1C(=O)OC [Example 125]	17	45
CNC(=O)/C(=N/OC)c1cccc(C)c1CO/N=C(\C)C#Cc1ccc(F)cc1 [Example 33]	0	0
CNC(=O)/C(=N/OC)c1cccc(C)c1CO/N=C(\C)C#Cc1cccc(C(F)(F)F)c1 [Example 40]	0	0
CNC(=O)/C(=N/OC)c1ccccc1CO/N=C(\C)C#Cc1ccccc1F [Example 62]	2	2
CO/N=C(/C(=O)OC)c1cccc(C)c1CO/N=C(\C)C#Cc1ccccc1C [Example 23]	0	0
CNC(=O)/C(=N/OC)c1ccccc1CO/N=C(\C)C#Cc1ccccc1Cl [Example 76]	3	4
CO/N=C(/C(=O)OC)c1ccccc1CO/N=C(\C)C#Cc1ccc(Cl)cc1C(F)(F)F [Example 94]	53	47
CNC(=O)/C(=N/OC)c1ccccc1CO/N=C(\C)C#Cc1ccc(C2CC2)cc1 [Example 92]	60	57
CNC(=O)/C(=N/OC)c1ccccc1CO/N=C(\C)C#Cc1cccc2c1OC(F)(F)O2 [Example 101]	4	2
CO/N=C(/C(=O)OC)c1ccccc1CO/N=C(\C)C#Cc1cccc(Br)c1 [Example 6]	25	43
CO/N=C(/C(=O)OC)c1cccc(C)c1CO/N=C(\C)C#Cc1cccc(F)c1 [Example 36]	4	9
CO/N=C(/C(=O)OC)c1cccc(C)c1CO/N=C(\C)C#Cc1ccccc1OC(F)(F)F [Example 26]	2	6
CNC(=O)/C(=N/OC)c1ccccc1CO/N=C(\C)C#Cc1ccc(OC(F)(F)F)cc1C1CC1 [Example 120]	15	22
CO/N=C(/C(=O)OC)c1ccccc1CO/N=C(\C)C#Cc1ccc(Cl)cc1-c1ccc(F)cc1 [Example 118]	3	4
CO/N=C(/C(=O)OC)c1ccccc1CO/N=C(\C)C#Cc1ccc(C(F)(F)F)cc1 [Example 65]	80	70
CNC(=O)/C(=N/OC)c1cccc(C)c1CO/N=C(\C)C#Cc1cccc(C)c1 [Example 57]	0	0
CNC(=O)/C(=N/OC)c1ccccc1CO/N=C(\C)C#Cc1ccc(OC2CC2)cc1 [Example 106]	23	13

Compound	PHAKPA Disease level (%) P2 at 16 ppm [1] [%]	PHAKPA Disease level (%) P6 at 16 ppm [2] [%]
CNC(=O)/C(=N/OC)c1cccc(C)c1CO/N=C(\C)C#Cc1ccccc1F [Example 63]	0	0
CNC(=O)/C(=N/OC)c1ccccc1CO/N=C(\C)C#Cc1cccc(F)c1 [Example 37]	6	8
CO/N=C(/C(=O)OC)c1ccccc1CO/N=C(\C)C#Cc1ccccc1 [Example 1, Methyl (2E)-2-methoxyimino-2-[2-[[(E)-(1-methyl-3-phenyl-prop-2-ynylidene)amino]-oxymethyl]phenyl]acetate]	38	58
CNC(=O)/C(=N/OC)c1cccc(C)c1CO/N=C(\C)C#Cc1ccc(OC(F)(F)F)cc1 [Example 21, (2E)-2-Methoxyimino-N-methyl-2-[3-methyl-2-[[(E)-[1-methyl-3-[4-(trifluoromethoxy)phenyl]prop-2-ynylidene]amino]oxymethyl]phenyl]acetamide]	25	33
CO/N=C(/C(=O)OC)c1cccc(C)c1CO/N=C(\C)C#Cc1ccccc1Cl [Example 75]	22	40
CNC(=O)/C(=N/OC)c1ccccc1CO/N=C(\C)C#Cc1c(C2CC2)cccc1C(F)(F)F [Example 119]	77	77
CO/N=C(/C(=O)OC)c1ccccc1CO/N=C(\C)C#Cc1ccccc1Cl [Example 74]	42	47
CNC(=O)/C(=N/OC)c1ccccc1CO/N=C(\C)C#Cc1ccc2c(c1)OC(F)(F)O2 [Example 84]	77	67
CNC(=O)/C(=N/OC)c1ccccc1CO/N=C(\C)C#Cc1cccc(C)c1 [Example 58]	2	4
CO/N=C(/C(=O)OC)c1ccccc1CO/N=C(\C)C#Cc1cccc(Cl)c1 [Example 71]	20	17
CNC(=O)/C(=N/OC)c1ccccc1CO/N=C(\C)C#Cc1ccccc1 [Example 2, (2E)-2-Methoxyimino-N-methyl-2-[2-[[(E)-(1-methyl-3-phenyl-prop-2-ynylidene)-amino]oxymethyl]phenyl]acetamide]	97	90
CNC(=O)/C(=N/OC)c1ccccc1CO/N=C(\C)C#Cc1ccccc1OC(F)(F)F [Example 9]	0	5
CNC(=O)/C(=N/OC)c1ccccc1CO/N=C(\C)C#Cc1ccc(Cl)cc1 [Example 4]	3	7
CNC(=O)/C(=N/OC)c1cccc(C)c1CO/N=C(\C)C#Cc1cccc(Br)c1 [Example 29]	1	0
CNC(=O)/C(=N/OC)c1ccccc1CO/N=C(\C)C#Cc1ccc(Cl)cc1C(C)C [Example 110]	0	2
CO/N=C(/C(=O)OC)c1ccccc1CO/N=C(\C)C#Cc1cccc(F)c1 [Example 35]	32	25
CO/N=C(/C(=O)OC)c1ccccc1CO/N=C(\C)C#Cc1ccc(F)cc1 [Example 7]	30	50
CNC(=O)/C(=N/OC)c1ccccc1CO/N=C(\C)C#Cc1ccccc1C [Example 51]	0	0
CO/N=C(/C(=O)OC)c1ccccc1CO/N=C(\C)C#Cc1cccc2c1OC(F)(F)O2 [Example 103]	28	22
CNC(=O)/C(=N/OC)c1ccccc1CO/N=C(\C)C#Cc1ccc(Cl)cc1-c1ccc(F)cc1 [Example 115]	2	1
CO/N=C(/C(=O)OC)c1ccccc1CO/N=C(\C)C#Cc1ccc(OC(F)(F)F)cc1C1CC1 [Example 121]	87	53
